Several values for one entry are separate records, joined by “and”; a condition that tells them apart may be missing. Equal values may be shown once. *1 amine or outer side, *2 acyl side, *3 side chain or, on linkers, in order; H or OH if unused. Where a SMILES comes first, the peptide text is derived from it. Bridges are numbered along the chain shown (N, C = ends). Roman numbers before positions name the chains, in order. [ ]: non-standard residue; d: D form. Actinocin(9to1) = Cc1c2oc3c(C)ccc(C(=O)[*:1])c3nc-2c(C(=O)[*:2])c(N)c1=O; NMeV = CN[C@H](C(=O)O)C(C)C; Sar = CNCC(=O)O
Tests used:
[1] = Plasma and brain tissue concentrations after intravenous bolus injection (CNS disposition); assay type: in vivo, mice; details: for Brain-to-Plasma Ratio: total concentrations
Method: The experiments were carried out in accordance with the European regulations for care and use of laboratory animals (2010/63/EU) under the German license number G-187/18 and the internal reference number DKFZ374, approved by the responsible regional council (Regierungspräsidium Karlsruhe, Germany). Female 8-week-old NSG mice (NOD.Cg-Prkdc^scid Il2rg^tm1Wjl/SzJ-NOD-SCID gamma-mice) with a weight of approximately 25 g were used for the studies. For microdialysis experiments, a microdialysis guide cannula was stereotactically implanted into the right striatum and stabilized with screws and dental acrylic cement. Mice received analgesia (metamizole) and anesthesia with isoflurane during surgery. After six days of recovery, the microdialysis procedure was initiated. A microdialysis probe (CMA7, 1 mm, molecular cut-off 55 kDa, CMA Microdialysis AB, Kist, Sweden) was inserted through the guide cannula and connected to a pump system operating at a constant flow rate of 0.5 µL/min Ringer-1 % bovine serum albumin (BSA) solution. Throughout the study, mice could freely move. Microdialysis samples were serially collected each hour. Because the number of blood collections in individual mice is limited, we estimated the optimal timepoints for a pharmacokinetic feasibility study by allometric simulation of actinomycin D’s pharmacokinetic profile in mice according to published data in humans. For the allometric simulation, mouse plasma pharmacokinetic profiles were simulated by allometrically scaling the clearance and volumes parameters using classic exponents (0.75 for clearances and 1 for volumes) […], based on 0.5 mg/kg dosage. […] Therefore, we chose to take blood samples 0.75, 6, and 22 h after intravenous bolus injection into the tail vein for the assay’s feasibility pharmacokinetic experiment. Three animals received an intravenous bolus injection of 0.5 mg/kg actinomycin D in 0.125 mL per mouse (25 g) of a 0.1 mg/mL dosing solution. This dosage corresponds to the usual therapy protocols in humans according to allometric scaling. Full blood samples were transferred into citrate tubes (Sarstedt, Germany) and centrifuged at 1600× g for 10 min to generate plasma samples, which were stored at −80 °C until analysis. For determination of actinomycin D disposition in the CNS, brain tissue, and plasma samples were harvested following euthanasia with increasing concentrations of CO2 at 2 h (three animals) or 22 h (four animals) after intravenous bolus injection of 0.5 mg/kg actinomycin D. Samples were stored at −80 °C until analysis. For validation of the UPLC-MS/MS quantification, blank plasma from 6 naïve mice was used and blank brain tissue was obtained from 2 unexposed mice. Whole brain tissue was homogenized using a Bead Ruptor 4 homogenizer (Omni International Inc, Kennesaw, GA, USA) in acetonitrile (ACN)/water (1/19, v/v) + 0.5 % Triton X and 0.1 % formic acid (FA) (100 mg brain tissue/mL) in 2.0 mL tubes containing ~25 glass beads (0.75–1 mm; Carl Roth GmbH, Karlsruhe, Germany) for 2 × 1 min.
For protein precipitation of plasma microsamples, an excess of ACN (50 µL) with 0.1% FA containing the IS was applied to an Impact® 96-well protein precipitation plate (Phenomenex, Torrance, CA, USA). Subsequently, 20 µL of the plasma samples were added and the plates sealed and shaken for 1 min. Brain tissue homogenate samples were processed accordingly. For protein depletion, samples were filtered into a 96-well collection plate (Waters, Milford, MA, USA) by applying positive pressure with a 96-well positive pressure unit (Waters, Milford, MA, USA) operated with air overpressure of 5 psi. After addition of 40 µL of water containing 0.1% FA, the collection plates were sealed, shaken, and extracts injected onto the UPLC system.

P-gp/ABCB1 = P-gp/ABCB1 (Homo sapiens, UniProt P08183); details: 0.01 µM, 10-120 min, 37 °C, 1 million cells, duplicate, cell homogenate UPLC-MS/MS; L-MDR1 vs LLC-PK1
Method: To confirm the P-gp substrate characteristics of actinomycin D, we conducted growth inhibition and uptake assays in a cell line over-expressing human P-gp/ABCB1 (L-MDR1 cells) in comparison to the respective parental cell line (LLC-PK1). L-MDR1 cells were kindly provided by A. H. Schinkel (The Netherlands Cancer Institute, Division of Experimental Therapy, Amsterdam, The Netherlands). The cells were cultured under standard cell culture conditions with medium M199 supplemented with 10% FCS, 2 mM glutamine, 100 U/mL penicillin, and 100 µg/mL streptomycin sulfate. The culture medium for L-MDR1 was supplemented with 0.64 µM vincristine to maintain P-gp/ABCB1 expression. One day before using the cells in the assays, both cell lines were fed with vincristine-free culture medium.

[2] = Stability in microdialysis buffer and in solution (assay validation); assay type: physicochemical; details: for 6-month stability in solution at 4°C, accuracy: ACN/H2O (1/1) + 0.1% FA solutions, 6 months; for 6-month stability in solution at 4°C, accuracy / 2 days buffer stability at RT, accuracy: N = 3; for 2 days buffer stability at RT, accuracy: microdialysate buffer (1% BSA Ringer)
Method: Plasma calibration samples were prepared by spiking blank plasma (75 µL) with 25 µL of the calibration sub-solution, yielding plasma concentrations of 0.05, 0.2, 0.5, 1, 3, 10, 30, and 100 ng/mL. Plasma QC samples were prepared accordingly at concentrations of 0.05, 0.15, 3, and 60 ng/mL. Brain tissue homogenate calibration samples were prepared by spiking brain tissue homogenate (75 µL), which was prepared at 100 mg tissue per mL of 5% aqueous ACN containing 0.5% Triton X, with 25 µL of the calibration sub-solution, yielding concentrations corresponding to 0.5, 2, 5, 10, 30, 100, 300, and 1000 ng/g. Brain tissue homogenate QC samples were prepared accordingly, at corresponding concentrations of 0.5, 1.5, 30, and 600 ng/g. Solutions were kept at 4 °C for up to 6 months.

P-gp/ABCB1, sequence (P08183 whole entry): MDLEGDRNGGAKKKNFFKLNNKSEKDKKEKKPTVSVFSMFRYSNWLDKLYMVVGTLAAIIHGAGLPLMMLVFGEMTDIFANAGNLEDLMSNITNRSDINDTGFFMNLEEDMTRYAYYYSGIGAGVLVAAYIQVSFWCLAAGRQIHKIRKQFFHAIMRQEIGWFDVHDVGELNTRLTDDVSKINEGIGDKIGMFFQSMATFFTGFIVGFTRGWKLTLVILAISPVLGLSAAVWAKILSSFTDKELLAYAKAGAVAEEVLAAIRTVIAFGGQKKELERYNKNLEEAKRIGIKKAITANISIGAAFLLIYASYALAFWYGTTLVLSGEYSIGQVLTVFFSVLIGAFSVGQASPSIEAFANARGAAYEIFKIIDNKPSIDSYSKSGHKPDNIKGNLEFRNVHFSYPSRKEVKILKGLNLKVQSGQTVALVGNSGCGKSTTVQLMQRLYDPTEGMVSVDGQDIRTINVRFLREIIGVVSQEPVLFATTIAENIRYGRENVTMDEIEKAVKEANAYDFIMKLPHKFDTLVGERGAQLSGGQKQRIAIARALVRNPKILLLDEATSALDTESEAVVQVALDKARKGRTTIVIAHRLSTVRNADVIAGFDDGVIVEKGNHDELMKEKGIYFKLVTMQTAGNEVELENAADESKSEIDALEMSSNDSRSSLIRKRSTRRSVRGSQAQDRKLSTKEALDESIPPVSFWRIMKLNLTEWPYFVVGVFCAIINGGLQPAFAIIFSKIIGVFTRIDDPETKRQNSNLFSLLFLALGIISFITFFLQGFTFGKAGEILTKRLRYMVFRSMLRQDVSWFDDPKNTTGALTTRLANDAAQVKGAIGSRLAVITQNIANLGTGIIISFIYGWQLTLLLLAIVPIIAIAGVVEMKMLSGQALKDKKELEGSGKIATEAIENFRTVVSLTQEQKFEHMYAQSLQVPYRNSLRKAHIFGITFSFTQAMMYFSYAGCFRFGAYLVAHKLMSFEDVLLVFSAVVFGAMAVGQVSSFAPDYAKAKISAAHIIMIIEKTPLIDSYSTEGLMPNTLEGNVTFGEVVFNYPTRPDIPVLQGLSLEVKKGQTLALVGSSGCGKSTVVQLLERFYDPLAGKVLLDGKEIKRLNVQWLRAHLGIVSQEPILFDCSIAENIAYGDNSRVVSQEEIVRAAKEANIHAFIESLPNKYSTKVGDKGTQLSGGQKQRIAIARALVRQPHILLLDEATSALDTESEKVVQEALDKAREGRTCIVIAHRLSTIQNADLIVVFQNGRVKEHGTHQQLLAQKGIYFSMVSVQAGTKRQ

Cc1c2oc3c(C)ccc(C(=O)N[C@@H]4C(=O)N[C@H](C(C)C)C(=O)N5CCC[C@H]5C(=O)N(C)CC(=O)N(C)[C@@H](C(C)C)C(=O)O[C@@H]4C)c3nc-2c(C(=O)N[C@@H]2C(=O)N[C@H](C(C)C)C(=O)N3CCC[C@H]3C(=O)N(C)CC(=O)N(C)[C@@H](C(C)C)C(=O)O[C@@H]2C)c(N)c1=O [actinomycin D, Actinomycin D] (I: T[dV]P[Sar][NMeV] / II: T[dV]P[Sar][NMeV]; ester I:1-I:C, II:1-II:C; linker I:N-II:N via Actinocin(9to1))
level at time molar at 2 h ([1]; female, NSG (NOD.Cg-Prkdc^scid Il2rg^tm1Wjl/SzJ), mouse, brain, iv, mice, 0.5 mg/kg i.v., after 2 h, read-out: brain tissue concentration): ~3 nM | level at time molar at 22 h ([1]; female, NSG (NOD.Cg-Prkdc^scid Il2rg^tm1Wjl/SzJ), mouse, brain, iv, mice, 0.5 mg/kg i.v., after 22 h, read-out: brain tissue concentration): ~1.2 nM | tissue level at time at 2 h ([1]; female, NSG (NOD.Cg-Prkdc^scid Il2rg^tm1Wjl/SzJ), mouse, iv, mice, 0.5 mg/kg i.v., 2 h, whole brain homogenate after cardiac perfusion with PBS, UPLC-MS/MS, mean of 3 mice, read-out: Brain Actinomycin D (total brain tissue concentration)): 4.1 ng/g | level at 2 h ([1]; female, NSG (NOD.Cg-Prkdc^scid Il2rg^tm1Wjl/SzJ), mouse, plasma, iv, mice, 0.5 mg/kg i.v., 2 h after administration, UPLC-MS/MS, mean of 3 mice, read-out: Plasma Actinomycin D): 22.7 ± 3.9 ng/mL | tissue level at time at 22 h ([1]; female, NSG, mouse, iv, mice, 0.5 mg/kg i.v., 22 h, whole brain homogenate after cardiac perfusion with PBS, UPLC-MS/MS, mean of 4 mice, read-out: Brain Actinomycin D (total brain tissue concentration)): 1.67 ± 0.77 ng/g | level at 22 h ([1]; female, NSG, mouse, plasma, iv, mice, 0.5 mg/kg i.v., 22 h after administration, UPLC-MS/MS, mean of 4 mice, read-out: Plasma Actinomycin D): 3.4 ± 1.45 ng/mL | Brain Actinomycin D (total brain tissue concentration) ([1]; mice, 0.5 mg/kg i.v., 2 h, whole brain homogenate after cardiac perfusion with PBS, UPLC-MS/MS, mean of 3 mice, 0.5 mg/kg): 4.14 ± 0.50 ng/g | Brain-to-Plasma Ratio ([1]; mice, 0.5 mg/kg i.v., 2 h, mean of 3 mice, 0.5 mg/kg): 0.18 and 0.18 ± 0.03 | Brain-to-Plasma Ratio ([1]; mice, 0.5 mg/kg i.v., 2 h, mouse 1): 0.21 | Brain-to-Plasma Ratio ([1]; mice, 0.5 mg/kg i.v., 2 h, mouse 2): 0.18 | Brain-to-Plasma Ratio ([1]; mice, 0.5 mg/kg i.v., 2 h, mouse 3): 0.16 | Brain-to-Plasma Ratio ([1]; mice, 0.5 mg/kg i.v., 22 h, mean of 4 mice): 0.53 ± 0.26 | Brain-to-Plasma Ratio ([1]; mice, 0.5 mg/kg i.v., 22 h, mouse 4): 0.80 | Brain-to-Plasma Ratio ([1]; mice, 0.5 mg/kg i.v., 22 h, mouse 5): 0.37 | Brain-to-Plasma Ratio ([1]; mice, 0.5 mg/kg i.v., 22 h, mouse 6): 0.18 | Brain-to-Plasma Ratio ([1]; mice, 0.5 mg/kg i.v., 22 h, mouse 7): 0.77 | actinomycin D concentration in brain tissue homogenate ([1]; mouse #1, 0.5 mg/kg i.v., 2 h, homogenate at 0.1 g tissue/mL, UPLC-MS/MS): 0.409 ng/mL | accumulation in P-gp over-expressing cell line versus parental cell line (P-gp/ABCB1): lower accumulation | stability in the microdialysis buffer ([2]; 1% BSA in Ringer solution, 2 d, room temperature): stable | 6-month stability in solution at 4°C, accuracy ([2]; High QC 60.0 ng/mL): 87.2% | 6-month stability in solution at 4°C, accuracy ([2]; Low QC 0.150 ng/mL): 88.3% | 6-month stability in solution at 4°C, accuracy ([2]; Medium QC 3.00 ng/mL): 86.4% | 2 days buffer stability at RT, accuracy ([2]; room temperature, High QC 60.0 ng/mL): 104.7% | 2 days buffer stability at RT, accuracy ([2]; room temperature, Low QC 0.150 ng/mL): 108.7% | 2 days buffer stability at RT, accuracy ([2]; room temperature, Medium QC 3.00 ng/mL): 113.5% | time stable in solution ([2]; stored solutions kept at 4 °C): at least 6 months

Reference: article PMC8466300, “Investigating the Central Nervous System Disposition of Actinomycin D: Implementation and Evaluation of Cerebral Microdialysis and Brain Tissue Measurements Supported by UPLC-MS/MS Quantification” (Pharmaceutics, 2021)
